PMC11960843, “Exploration of the tunability of BRD4 degradation by DCAF16 trans-labelling covalent glues” (European journal of medicinal chemistry, 2024)
Like-named read-outs stand apart in the source and are kept apart here.

What was measured:
[1] = system: glutathione; assay: GSH stability (glutathione reactivity) assay by LC-MS/MS; type: physicochemical; conditions: PBS containing 5 mM reduced glutathione; PBS + 5 mM GSH; extrapolated from 240 min assay
Source text: Furthermore, we wanted to determine the kinetics of the BRD4BD2-DCAF16 interaction given its covalent nature. […] Additionally, to understand the relationship between ternary complex formation kinetics and warhead reactivity we measured the depletion of the covalent analogs in the presence of glutathione using MS (Table S2). […].

[2] = target: T1, BRD4BD2-DCAF16 ternary complex (Homo sapiens, UniProt O60885+Q9NXF7); assay: DDB1-DCAF16-BRD4BD2 TR-FRET ternary complex formation assay; type: biochemical; conditions: for TR-FRETmax (520 nm/490 nm ratio): 6 h degrader incubation; for incubation time of saturation / maximum TR-FRET signal: measured at 1, 2, 4, 6 and 24 h; for BRD4BD2-DCAF16 ternary complex formation / DCAF16 recruitment (in words): time-dependent TR-FRET
T1 construct: E3 ligase to bromodomain 2 (BRD4BD2); His6 (N); StrepII (N); Avi (N); made in house; host or cells: BRD4BD2: E. coli (pET100/D-TOPO)
Source text: To determine the relationship between covalent warheads and DCAF16 recruitment to BRD4BD2, we used a time-resolved fluorescence energy transfer (TR-FRET) assay to measure induced BRD4BD2-DCAF16 ternary complex formation (Fig. 3A).
Furthermore, we wanted to determine the kinetics of the BRD4BD2-DCAF16 interaction given its covalent nature. […] Additionally, to understand the relationship between ternary complex formation kinetics and warhead reactivity we measured the depletion of the covalent analogs in the presence of glutathione using MS (Table S2). […] Titrations of compounds to induce the DCAF16-BRD4BD complex were carried out by mixing 100 nM biotinylated BRD4BD2, 500 nM BODIPY-FL labeled DDB1ΔB-DCAF16 variants, and 2 nM terbium-coupled streptavidin (Invitrogen) in an assay buffer containing 50 mM HEPES pH 8.0, 200 mM NaCl, 0.1% Pluronic F-68 solution (Sigma), 0.5% bovine serum albumin (BSA) (w/v) and 1 mM TCEP. […] The TR-FRET signal of each data point was extracted by calculating the 520/490 nm ratio.

[3] = target: T2, BRD4 (Homo sapiens, UniProt O60885); assay: Western blot of BRD4 degradation, wild-type K562 cells; type: cell-based; set-up: an 11 amino acid peptide knock-in tag to a protein-of-interest using CRISPR insertion; endogenous in cells; conditions: wild-type K562, 1 μM, 16 h
Experimental: (§1) Western blotting was used to determine the degradation potencies of the covalent BRD4 degraders.
(§2) Cells were washed with PBS and lysed in RIPA lysis buffer (Thermo Fisher Scientific) with Halt Protease Inhibitor Cocktail (Thermo Fisher Scientific) and Benzonase (Sigma-Aldrich) for 20 min on ice. The insoluble fraction was removed by centrifugation, the protein concentration was quantified using a BCA protein assay kit (Thermo Fisher Scientific), and an equal amount of lysate was run on SDS–PAGE 4–12% Bis–Tris Protein Gels (Thermo Fisher Scientific) and then transferred to nitrocellulose membrane with a XCell II Blot Module Wet Tank Transfer System (Thermo Fisher Scientific). Membranes were blocked in Intercept (PBS) Blocking Buffer (LI-COR Biosciences) and incubated with primary antibodies overnight at 4 °C. The membranes were then washed in Tris-buffered saline with Tween-20 (TBS-T), incubated for 1 h with secondary IRDye-conjugated antibodies (LI-COR Biosciences) and washed three times in TBS-T for 5 min before near-infrared western blot detection on an Odyssey Imaging System (LI-COR Biosciences).

[4] = target: BRD4BD1 (Homo sapiens, UniProt O60885); assay: BRD4 AlphaScreen competition assay (JQ1-biotin displacement), BRD4BD1; type: binding
[5] = target: T2, BRD4; assay: Washout experiment, Western blot of BRD4 degradation in K562 cells; type: cell-based; set-up: an 11 amino acid peptide knock-in tag to a protein-of-interest using CRISPR insertion; endogenous in cells; conditions: K562, 1 μM; for BRD4 degradation after washout compared to no washout (in words): 4 h treatment, 20 h compound-free vs 24 h no washout
Experimental: This experiment involves cell treatment and incubation with a ‘covalent’ compound, followed by a wash-step where the cells are washed and resuspended in compound-free cell media.
Cells were washed with PBS and lysed in RIPA lysis buffer (Thermo Fisher Scientific) with Halt Protease Inhibitor Cocktail (Thermo Fisher Scientific) and Benzonase (Sigma-Aldrich) for 20 min on ice. […] Membranes were blocked in Intercept (PBS) Blocking Buffer (LI-COR Biosciences) and incubated with primary antibodies overnight at 4 °C. The membranes were then washed in Tris-buffered saline with Tween-20 (TBS-T), incubated for 1 h with secondary IRDye-conjugated antibodies (LI-COR Biosciences) and washed three times in TBS-T for 5 min before near-infrared western blot detection on an Odyssey Imaging System (LI-COR Biosciences).

[6] = target: T3, BRD4BD2 (Homo sapiens, UniProt O60885); assay: BRD4BD2-eGFP and mCherry flow reporter degradation assay, wild type K562 cells; conditions: for Dmax: K562, read-out: maximal degradation (Dmax/16h) of BRD4BD2, K562 cells, 16 h incubation; for DC50: read-out: DC50 of BRD4BD2 degradation; for DC50 / DCAF16 dependent BRD4BD2 degradation (in words): K562 cells, 16 h incubation
Source text: This assay involves the co-expression of mCherry with BRD4BD1/2 fused to an enhanced green fluorescent protein (eGFP) tag, and the subsequent fluorescence measurement of BRD4BD1/2-eGFP normalized to mCherry as a readout for BRD4BD1/2 degradation. It allows for a quantitative, rapid, and facile screening of several MGDs, in a dose-and time-dependent manner. […] Thus, the BRD4BD2 stability system was used to test all subsequent GNE011 analogs in wild type and DCAF16−/− cells.
One day after infection, reporter cells were selected with puromycin at a concentration of 2 μg/mL.
(§5) K562 cells stably expressing degradation reporter were dosed with DMSO or degraders at various times and concentrations using D300e Digital Dispenser (HP). The fluorescent signal was quantified by flow cytometry (LSRFortessa flow cytometer, BD Biosciences) and analyzed using FlowJo (flow cytometry analysis software, BD Biosciences). The geometric mean of the eGFP and mCherry fluorescent signal for round and mCherry-positive cells was calculated. GFP expression was normalized to mCherry signal and drug treatments were compared to DMSO controls.

[7] = target: T2, BRD4; assay: BRD4-HiBiT assay, DCAF16 KO JURKAT cells; type: cell-based; set-up: an 11 amino acid peptide knock-in tag to a protein-of-interest using CRISPR insertion; endogenous in cells; host or cells: JURKAT, HiBiT-edited (wild type or DCAF16 knockout); conditions: 6 h
Experimental: (§3) Thereafter, we sought to characterize the BRD4 cellular degradation potencies in a dose-dependent manner at a shorter time point to minimize secondary effects. This was performed using the bioluminescent HiBiT-BRD4 assay, which consists of an 11 amino acid peptide knock-in tag to a protein-of-interest using CRISPR insertion. A complementary polypeptide (LgBiT) detects and interacts with all HiBiT tagged proteins, thereby reconstituting a luminescent NanoBiT enzyme, that can be quantified by its bioluminescence. WT and DCAF16 KO JURKAT cell lines expressing the BRD4-HiBiT system were generated to quantify dose-dependent BRD4 degradation after 6 h incubation (Fig. 4C).
(§4) After 6 h, the plates were subjected to Nano-Glo HiBiT Lytic detection system (Promega, #N3040) as described in manufacturer's manual. The assays were performed in biological triplicate. DC50 values were determined using a non-linear regression curve fit in GraphPad PRISM 9.5.1.

[8] = target: T2, BRD4; assay: Western blot of BRD4 degradation, DCAF16 KO K562 cells; type: cell-based; set-up: an 11 amino acid peptide knock-in tag to a protein-of-interest using CRISPR insertion; endogenous in cells; conditions: DCAF16 KO K562, 1 μM, 16 h
Experimental: as §1, §2

[9] = target: T2, BRD4; assay: BRD4-HiBiT assay, WT JURKAT cells; type: cell-based; set-up: an 11 amino acid peptide knock-in tag to a protein-of-interest using CRISPR insertion; endogenous in cells; host or cells: JURKAT, HiBiT-edited (wild type or DCAF16 knockout); conditions: 6 h
Experimental: as §3, §4

[10] = target: T3, BRD4BD2; assay: BRD4 AlphaScreen competition assay (JQ1-biotin displacement), BRD4BD2; type: binding
[11] = target: T3, BRD4BD2; assay: BRD4BD2-eGFP and mCherry flow reporter degradation assay, DCAF16 KO K562 cells
Source text: In order to investigate the degradation of BRD4 by GNE011 and related analogs, we used a fluorescent stability reporter assay reported previously (Fig. 2A) [17]. This assay involves the co-expression of mCherry with BRD4BD1/2 fused to an enhanced green fluorescent protein (eGFP) tag, and the subsequent fluorescence measurement of BRD4BD1/2-eGFP normalized to mCherry as a readout for BRD4BD1/2 degradation. It allows for a quantitative, rapid, and facile screening of several MGDs, in a dose-and time-dependent manner. […] Thus, the BRD4BD2 stability system was used to test all subsequent GNE011 analogs in wild type and DCAF16−/− cells.
Lentivirus containing sgRNA was transduced to 2 × 10^6 of K562-Cas9 cells at 10% volume ratio by spin infection. FACS sorting was performed to enrich BFP+ cells one week after infection. […] Clonal sgDCAF16-expressing K562-Cas9 cells were isolated after one month of expansion, and the genomic sequences were validated via deep sequencing of PCR amplicons targeting sgDCAF16 cutting sites (MGH CCIB DNA Core Service).
as §5

T1 sequence (Q9NXF7 whole entry, other chains not shown): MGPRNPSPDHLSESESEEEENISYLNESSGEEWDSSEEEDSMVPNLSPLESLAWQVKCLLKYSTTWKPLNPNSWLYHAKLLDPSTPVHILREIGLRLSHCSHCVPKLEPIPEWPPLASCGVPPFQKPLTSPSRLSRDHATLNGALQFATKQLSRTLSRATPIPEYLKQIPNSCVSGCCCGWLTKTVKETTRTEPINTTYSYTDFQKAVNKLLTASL

Cc1sc2c(c1C)C(c1ccc(C#CC=O)cc1)=N[C@@H](CC(=O)OC(C)(C)C)c1nnc(C)n1-2 [TMX4128, tert-butyl (S)-2-(2,3,9-trimethyl-4-(4-(3-oxoprop-1-yn-1-yl)phenyl)-6H-thieno[3,2-f][1,2,4]triazolo[4,3-a][1,4]diazepin-6-yl)acetate]
half-life [1]: 8.83 h | TR-FRETmax (520 nm/490 nm ratio) [2]: 0.65 | incubation time of saturation / maximum TR-FRET signal [2]: 1 h | BRD4BD2-DCAF16 ternary complex formation / DCAF16 recruitment (in words) [2]: disintegration of the ternary complex overtime | BRD4 degradation by Western blot (in words) [3]: nearly complete BRD4 degradation | IC50 ([4]; read-out: IC50 BRD4BD1): 2.2 nM | BRD4 degradation after washout compared to no washout (in words) [5]: no or minimal difference | Dmax [6]: 69% | DC50 [6]: 703 nM | BRD4 degradation in DCAF16 KO (in words) [7]: completely rescued by DCAF16 KO | BRD4 degradation by Western blot in DCAF16 KO (in words) [8]: completely rescued by DCAF16 KO | BRD4 degradation [9]: < 60% | BRD4 degradation (in words) [9]: noticeable BRD4 degradation | BRD4 degradation ([9]; at 10 μM): ~ 73% | IC50 ([10]; read-out: IC50 BRD4BD2): 21.7 nM

COC(=O)/C=C/c1ccc(C2=N[C@@H](CC(=O)OC(C)(C)C)c3nnc(C)n3-c3sc(C)c(C)c32)cc1 [MMH269, methyl (S,E)-3-(4-(6-(2-(tert-butoxy)-2-oxoethyl)-2,3,9-trimethyl-6H-thieno[3,2-f][1,2,4]triazolo[4,3-a][1,4]diazepin-4-yl)phenyl)acrylate]
half-life [1]: > 12.5 h | TR-FRETmax (520 nm/490 nm ratio) [2]: 0.18 | BRD4BD2-DCAF16 ternary complex formation / DCAF16 recruitment (in words) [2]: no significant DCAF16 recruitment | IC50 ([4]; read-out: IC50 BRD4BD1): 10.5 nM | BRD4 degradation without washout (in words) ([5]; 24 h no washout): showed BRD4 degradation in 24 h no washout experiments | DCAF16 dependent BRD4BD2 degradation (in words) [6]: almost no DCAF16 dependent BRD4BD2 degradation | IC50 ([10]; read-out: IC50 BRD4BD2): 5.07 nM

Cc1sc2c(c1C)C(c1ccc(I)cc1)=N[C@@H](CC(=O)OC(C)(C)C)c1nnc(C)n1-2 [MMH263, tert-butyl (S)-2-(4-(4-iodophenyl)-2,3,9-trimethyl-6H-thieno[3,2-f][1,2,4]triazolo[4,3-a][1,4]diazepin-6-yl)acetate]
IC50 [4]: 11.7 nM | IC50 [10]: 4.96 nM

Cc1sc2c(c1C)C(c1ccc(NC(=O)CCl)cc1)=N[C@@H](CC(=O)OC(C)(C)C)c1nnc(C)n1-2 [MMH249, tert-butyl (S)-2-(4-(4-(2-chloroacetamido)phenyl)-2,3,9-trimethyl-6H-thieno[3,2-f][1,2,4]triazolo[4,3-a][1,4]diazepin-6-yl)acetate]
half-life [1]: 8.85 h | TR-FRETmax (520 nm/490 nm ratio) [2]: 0.77 | incubation time of saturation / maximum TR-FRET signal [2]: 24 h | BRD4 degradation by Western blot (in words) [3]: moderate degradation | IC50 ([4]; read-out: IC50 BRD4BD1): 3.98 nM | BRD4 degradation after washout compared to no washout (in words) [5]: no or minimal difference | BRD4BD2 degradation activity in DCAF16 knockout cells (in words) [11]: almost entirely ablated | Dmax [6]: 56% | DC50 [6]: 8 nM | BRD4 degradation in DCAF16 KO (in words) [7]: completely rescued by DCAF16 KO | BRD4 degradation [9]: < 60% | BRD4 degradation (in words) [9]: noticeable BRD4 degradation | IC50 ([10]; read-out: IC50 BRD4BD2): 2.59 nM

Cc1sc2c(c1C)C(c1ccc(/C=C/C=O)cc1)=N[C@@H](CC(=O)OC(C)(C)C)c1nnc(C)n1-2 [TMX1, tert-butyl (S,E)-2-(2,3,9-trimethyl-4-(4-(3-oxoprop-1-en-1-yl)phenyl)-6H-thieno[3,2-f][1,2,4]triazolo[4,3-a][1,4]diazepin-6-yl)acetate]
half-life [1]: 6.92 h | TR-FRETmax (520 nm/490 nm ratio) [2]: 1.34 | incubation time of saturation / maximum TR-FRET signal [2]: 1 h | BRD4 degradation by Western blot (in words) [3]: nearly complete BRD4 degradation | IC50 ([4]; read-out: IC50 BRD4BD1): 8.78 nM | BRD4 degradation after washout compared to no washout (in words) [5]: no or minimal difference | Dmax [6]: 75% | DC50 [6]: 64 nM | BRD4 degradation in DCAF16 KO (in words) [7]: completely rescued by DCAF16 KO | BRD4 degradation by Western blot in DCAF16 KO (in words) [8]: completely rescued by DCAF16 KO | BRD4 degradation [9]: < 60% | BRD4 degradation (in words) [9]: noticeable BRD4 degradation | IC50 ([10]; read-out: IC50 BRD4BD2): 33.9 nM

Cc1sc2c(c1C)C(c1ccc(N)cc1)=N[C@@H](CC(=O)OC(C)(C)C)c1nnc(C)n1-2 [MMH248, tert-butyl (S)-2-(4-(4-aminophenyl)-2,3,9-trimethyl-6H-thieno[3,2-f][1,2,4]triazolo[4,3-a][1,4]diazepin-6-yl)acetate]
IC50 [4]: 12.5 nM | IC50 [10]: 4.29 nM

Cc1sc2c(c1C)C(c1ccc(C#CCO)cc1)=N[C@@H](CC(=O)OC(C)(C)C)c1nnc(C)n1-2 [TMX458, tert-butyl (S)-2-(4-(4-(3-hydroxyprop-1-yn-1-yl)phenyl)-2,3,9-trimethyl-6H-thieno[3,2-f][1,2,4]triazolo[4,3-a][1,4]diazepin-6-yl)acetate]
TR-FRETmax (520 nm/490 nm ratio) [2]: 0.16 | BRD4BD2-DCAF16 ternary complex formation / DCAF16 recruitment (in words) [2]: no significant DCAF16 recruitment | IC50 ([4]; read-out: IC50 BRD4BD1): 10.1 nM | Dmax [6]: 10% | DCAF16 dependent BRD4BD2 degradation (in words) [6]: completely inactive | DC50 [6]: > 10000 nM | IC50 ([10]; read-out: IC50 BRD4BD2): 3.92 nM
